Reference: US4921871A, “Enolamides, pharmaceutical compositions and methods of use thereof for treating inflammation” (Warner-Lambert Company, priority 1987, dated 1990)

Target: T1, human leukocyte 5-lipoxygenase (Homo sapiens, UniProt P09917)
T1 construct: endogenous in cells; host or cells: leukocytes from fresh human blood
T1 sequence (P09917 1-674): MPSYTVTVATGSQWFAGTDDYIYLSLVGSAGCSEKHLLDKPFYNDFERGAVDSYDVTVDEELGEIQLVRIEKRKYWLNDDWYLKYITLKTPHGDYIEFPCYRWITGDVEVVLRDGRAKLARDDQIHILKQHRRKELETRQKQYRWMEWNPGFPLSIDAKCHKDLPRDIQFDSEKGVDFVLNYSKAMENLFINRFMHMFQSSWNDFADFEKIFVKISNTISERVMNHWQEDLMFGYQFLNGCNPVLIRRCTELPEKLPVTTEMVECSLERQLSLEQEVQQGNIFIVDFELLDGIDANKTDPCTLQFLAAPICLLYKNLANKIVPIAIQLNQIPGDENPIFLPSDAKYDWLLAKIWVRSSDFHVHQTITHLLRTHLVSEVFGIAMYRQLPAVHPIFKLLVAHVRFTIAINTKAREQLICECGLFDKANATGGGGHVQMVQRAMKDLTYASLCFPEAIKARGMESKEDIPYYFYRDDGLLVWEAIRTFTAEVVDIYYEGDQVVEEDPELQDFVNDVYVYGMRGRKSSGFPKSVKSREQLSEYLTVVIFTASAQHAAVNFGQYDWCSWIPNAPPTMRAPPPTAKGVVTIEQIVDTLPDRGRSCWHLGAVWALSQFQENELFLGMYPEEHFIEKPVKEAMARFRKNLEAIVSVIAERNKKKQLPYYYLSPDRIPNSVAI
Assay: 5-Lipoxygenase assay in human leukocytes, formation of 5-HETE (5LOA; 5LOA1 or 5LOA2 not specified)
Type: cell-based
Text: To Evaluate the Effect of Each Compounds as a 5-Lipoxygenase Inhibitor in Comparison to Standard Reference Agents in Human Leukocytes (5LOAl)
The purpose of this assay is to evaluate the activity of each compound as an inhibitor of human leukocyte 5-lipoxygenase.
Arachidonic acid and calcium ionophore A23l87 are obtained from Sigma (St. Louis, Mo.). Silica gel plates, GF are obtained from Analtech (Newark, Del.). Arachidonic acid, (1-^14 C) and 5-HETE (^3 H), 5 (S)-hydroxy-6-trans, 8,11,14-cis eicosatetraenoic acid, are obtained from New England Nuclear (Boston, Mass.). Six percent Dextran-70 in 0.9% NaCl is obtained from Cutter Labs (Berkeley, Calif.).
Fresh blood from normal adult men who had not received any drugs for at least the previous five days is obtained by the Community Research Clinic (WL/PD) using venipuncture and collected into heparinized vacuotainer tubes. To every 100 ml of pooled blood is added 25 ml of dextran solution (6% dextran -70 in 0.9% sodium chloride containing 3% dextrose) and this is mixed gently in a plastic cylinder. The mixture is left to stand at room temperature for at least 90 minutes. The upper layer which is rich in leukocytes and platelets is then carefully decanted into 50 ml plastic tubes and centrifuged at about 100×g for eight minutes in an IEC centrifuge and rotor number 269 (about 600 rpm). The supernatant fluid is discarded and the pellet is resuspended in 10 ml of 0.87% ammonium chloride for exactly two minutes. This procedure is to lyse completely contaminating red blood cells. Leukocytes are then separated by centrifugation for ten minutes. The pellet is washed three times by suspension in 20 ml PBS (sodium chloride, 7.1 g; Na2 HPO4, 1.15 g; KH2 PO4, 0.2 g, and KCl, 0.2 g/L) and centrifuged as before. The final pellet is suspended in PBS containing 0.87 mM CaCl2. Viability of the cells is then checked using trypan blue exclusion method and is found to be over 90%.
Leukocyte cells in suspension (0.98 ml) are incubated with or without test compounds for five minutes at 37° C. in a shaking water bath. At this time a 17 μl mixture is prepared per 1 ml of cell suspension: 100 mM arachidonic acid, 1 μl, 0.05 μCi ^14 C-arachidonic acid in 5 .rho.l; 1 mM calcium ionophore A23187, 10 μl (1). This mixture is added and the incubation continued for five minutes. The reaction is stopped by adding four volumes of absolute ethanol and the mixture is kept in ice for 30 minutes. The floculated precipitate is separated by centrifugation at about 37,000×g for 20 minutes (Beckman Instruments rotor number 40). The alcohol extract is taken to dryness under a stream of nitrogen and the residue is dissolved in 100-200 μl absolute ethanol. At the time any turbidity is removed by centrifugation. An aliquot (25-50 μl) is applied onto 20×20 cm silica gel TLC plate and developed using the following solvent system: diethyl ether, petroleum ether (2040° C.), acetic acid (50:50: 1 v/v). Zones of 1 cm apart are scraped from the TLC plate and transferred to mini-vials. Methanol (0.5 ml) is added to dissolve the radioactivity adsorbed to the silica gel and scintillation fluid (H.P., Beckman), 5 ml is then added and vials are counted in a liquid scintillation counter. A sample of ^3 H-5-HETE is applied and used for the identification of the formed 5-HETE.
Total radioactivity in the test as well as the control samples are normalized and the amount of 5-HETE present is calculated accordingly.
IC50 values are defined as the concentrations of test agents which caused a 50% inhibition of the formation of 5-HETE as compared to control and are determined by inspection of the concentration-response curves.
The formation of 5-HETE in human leukocytes is considered a measure of 5-lipoxygenase activity. The protocol is described in the following.
Fresh heparinized or EDTA treated human blood is mixed with 6% dextran-3% dextrose in isotonic saline in the ratio 0.25 ml dextran solution per 1.0 ml blood. […]

5LOA, % Inhibition (2.00 E -5 M)	5LOA, % Inhibition (5.00 E -6 M)	SMILES
+2.2%	+1.4%	O=C(Nc1ccc(CCc2ccc(Cl)c(Cl)c2)cc1)C(=O)c1sc2ccccc2c1O [Example 136, Benzo[b]thiophene-2-acetamide, N-[4-[2-(3,4-dichlorophenyl)ethyl]phenyl]-3-hydroxy-α-oxo]
13.8%	5.5%	COc1c(C(=O)Nc2ccc(CCc3ccc(Cl)c(Cl)c3)cc2)sc2ccccc12 [Example 147, Benzo[b]thiophene-2-carboxamide, N-[4-[2-(3,4-dichlorophenyl)ethyl]phenyl]-3-methoxy]
